Assay type in all cases: in vivo, outbred Swiss mice
Assay [1] deals with S. mansoni. Description: First vaccination experiment against S. mansoni (Example 4, FIG. 11). To be noted: 70 μg peptide + MPL-TDM + Al(OH)3, inguinal route, challenge 100 cercariae 60 days after last immunization, perfused 45 days later. How it is done: Percentage protection, {(C−V)/C}×100}, of outbred Swiss mice is given after vaccination and subsequent challenge with 100 cercariae. From left to right the bars correspond to vaccination with peptide 1.2, peptide 1.3, peptide 1.4, peptide 2.1, peptide 2.2, peptide 2.3, peptide 2.4, peptide 2.5, peptide 2.6, r-Sm14, saline extract (SE) administered via the footpad, SE administered via the inguinal route, adjuvant and PBS respectively. All peptides were administered via the inguinal route. All peptides were administered in the presence of the adjuvant monophosphoryl lipid A+trehalose dicorynomycolate (MPL-TDM, Ribi ImmunoChem Research Inc.)+Alum.
In this experiment, outbreed Swiss mice were immunized with two intradermal/subcutaneous doses at an interval of 7 days followed by a booster injection, 21 days later. In the case of the peptides, a dose of 70 μg in the presence of the adjuvant monophosphoryl lipid A+trehalose dimycolate (MPL-TDM, Ribi ImmunoChem Research Inc.) and Al(OH)3 was used for all injections. […]
For assays of protection against S. mansoni, the animals were challenged subcutaneously with 100 cercariae, 60 days after the last immunization and perfused 45 days later. Overall protection was calculated by the formula {(C−V)/C}×100, where C is the average number of worms in control animals and V is the average number of worms in vaccinated animals.

The subject of assay [2] is S. mansoni. The assay can be described thus: Second vaccination experiment against S. mansoni, footpad route (Example 5, FIG. 12). The conditions noted are these: challenge 100 cercariae; for Percentage protection {(C−V)/C}×100: 70 μg peptide + MPL-TDM + Al(OH)3, footpad route, perfused 45 days later; for Performance (protection) compared with recombinant whole protein r-Sm14: footpad route. As to the method:
Percentage protection is given as in FIG. 9. From left to right the bars correspond to peptide 1.1, peptide 1.3, peptide 1.4, peptide 2.1, peptide 2.5, r-Sm14, adjuvant and PBS respectively. In this experiment all samples were administered via the footpad. All peptides were administered in the presence of adjuvant: monophosphoryl lipid A+trehalose dicorynomycolate (MPL-TDM, Ribi ImmunoChem Research Inc.)+Alum.
In this experiment an identical protocol as Example 4 was employed for a sub-group of peptides including those which appeared most promising (1.1; 1.3; 1.4 and 2.1) together with 2.5 as a control, but employing the footpad as the route of administration.
Animals were challenged subcutaneously with 100 cercariae, 60 days after the last immunization and perfused 45 days later. Overall protection was calculated by the formula {(C−V)/C}×100, where C is the average number of worms in control animals and V is the average number of worms in vaccinated animals.

Another assay relates to F. hepatica. The assay can be described thus: Fasciola hepatica protection assay (Example 6, FIG. 13). The conditions noted are these: footpad, oral challenge 3 metacercariae, sacrifice 30 days after challenge. An excerpt: Due to the limited number of parasites used for challenge, animals are considered protected when they present sterile immunity, i.e. no adult worms are present after sacrifice. The mean protection is therefore given as the percentage of sterile animals at sacrifice. From left to right the bars correspond to peptide 1.1, peptide 1.3, peptide 1.4, peptide 2.1, peptide 2.5, r-Sm14+adjuvant, r-Sm14, adjuvant and PBS respectively. The adjuvant used was monophosphoryl lipid A+trehalose dicorynomycolate (MPL-TDM, Ribi ImmunoChem Research Inc.)+Alum.
This example refers to the use of some of the peptides described in Example 1 for vaccination against Fasciola hepatica in the Swiss mouse model. For the Fasciola hepatica protection assay each group (10 outbred Swiss mice/group) received three intradermal/subcutaneous doses via the footpad using an identical protocol to that described above for S. mansoni. Animals were vaccinated with either 70 μg of one of the sub-group of peptides described above (1.1, 1.3, 1.4, 2.1 and 2.5), emulsified in Ribi adjuvant (MPL-TDM) and Al(OH)3 or 10 μg of r-Sm14 (in the presence or absence of adjuvant), or an equivalent amount of adjuvant alone. Vaccinated and non-vaccinated control groups were simultaneously challenged orally with 3 metacercariae of F. hepatica 60 days after immunization and the sacrifice of all animals performed 30 days after challenge.

Setting [3] is: with adjuvant MPL-TDM + Al(OH)3, 70 μg peptide or 10 μg r-Sm14.

For the molecule “EKFSESKLTFDGIVREVDGATMKTT (Oligopeptide derived from the fusion of two peptides from Schistosoma mansoni) [Peptide 2.5, Alternate modification to 2.3]”, in the assay on S. mansoni [1], the “Percentage protection {(C−V)/C}×100” value was “no protection at all and zero”.

For “EKNSESKLTQ (Oligopeptide from Schistosoma mansoni) [Peptide 2.1, Loop between β-strands 6 and 7 of Sm14, residues 85 to 94]”, in the assay on S. mansoni [2], the “Percentage protection {(C−V)/C}×100” value turned out to be 50% and the “Performance (protection) compared with recombinant whole protein r-Sm14” value is on record as “equivalent to that seen for the recombinant whole protein”. The “Percentage protection (percentage of sterile animals at sacrifice)” value in the assay with F. hepatica (setting [3]) worked out at 100%.

Regarding “KIGTSVFGTRTSKFDATEMVLDKEE [Peptide 2.6, 2.5 randomized; control peptide of identical amino acid composition]”, the “Percentage protection {(C−V)/C}×100” value in the assay on S. mansoni [1] was “no protection at all and zero”.

With “VTVGDVTA (oligopeptide from Schistosoma mansoni) [Peptide 1.1, Loop between β-strands 9 and 10 of Sm14, residues 118 to 125]”, in the assay on S. mansoni [2], the “Percentage protection {(C−V)/C}×100” value is about 50% and the “Performance (protection) compared with recombinant whole protein r-Sm14” value is reported as “equivalent to that seen for the recombinant whole protein”. For the same molecule, the “Percentage protection (percentage of sterile animals at sacrifice)” value with F. hepatica (setting [3]) was 66.7%.

For “VTVGDVTANFDAVMSKLG (Oligopeptide derived from the fusion of two peptides from Schistosoma mansoni) [Peptide 1.3, Union of 1.1 and 1.2]”, in the assay on S. mansoni [2], the “Performance (protection) compared with recombinant whole protein r-Sm14” value is given as “equivalent to that seen for the recombinant whole protein”. Further, in the assay on F. hepatica (setting [3]), the “Percentage protection (percentage of sterile animals at sacrifice)” value was determined as 50%.

On to “VTVGDVTGGSDAVMSKLG (Oligopeptide derived from the fusion of two peptides from Schistosoma mansoni) [Peptide 1.4, 1.3 modified]”, for which, in the assay with S. mansoni [2], the “Performance (protection) compared with recombinant whole protein r-Sm14” value is recorded as “equivalent to that seen for the recombinant whole protein”. In addition, the “Percentage protection (percentage of sterile animals at sacrifice)” value in the assay with F. hepatica (setting [3]) amounted to 100%.

B1: r-Sm14: recombinant Sm14 protein expressed by the pRSETA-6×His-Sm14 construct in E. coli BL21(DE3) (protein, UniProt P29498 1-133, looked up)
14 kDa fatty acid-binding …: MSSFLGKWKLSESHNFDAVMSKLGVSWATRQIGNTVTPTVTFTMDGDKMTMLTESTFKNLSCTFKFGEEFDEKTSDGRNVKSVVEKNSESKLTQTQVDPKNTTVIVREVDGDTMKTTVTVGDVTAIRNYKRLS
modifications: 6xHis tag
As for B1, the “Percentage protection (percentage of sterile animals at sacrifice)” value in the assay with F. hepatica (absence of adjuvant, 10 μg r-Sm14) is recorded as 100%; in the assay with F. hepatica (setting [3]), 100%.

These data come from patent publication US8909483B2, “Direct or indirect diagnostic test for helminth infection” (priority 2002, dated 2014).
